# In paper PMC6073568, “Efficient Lead Finding, Activity Enhancement and Preliminary Selectivity Control of Nuclear Receptor Ligands Bearing a Phenanthridinone Skeleton” (International Journal of Molecular Sciences, 2018):
# Target: T1, GR (Homo sapiens, UniProt P04150)
# T1 construct: expressed in transfected cells; host or cells: HEK293
# T1 sequence (P04150 1-777): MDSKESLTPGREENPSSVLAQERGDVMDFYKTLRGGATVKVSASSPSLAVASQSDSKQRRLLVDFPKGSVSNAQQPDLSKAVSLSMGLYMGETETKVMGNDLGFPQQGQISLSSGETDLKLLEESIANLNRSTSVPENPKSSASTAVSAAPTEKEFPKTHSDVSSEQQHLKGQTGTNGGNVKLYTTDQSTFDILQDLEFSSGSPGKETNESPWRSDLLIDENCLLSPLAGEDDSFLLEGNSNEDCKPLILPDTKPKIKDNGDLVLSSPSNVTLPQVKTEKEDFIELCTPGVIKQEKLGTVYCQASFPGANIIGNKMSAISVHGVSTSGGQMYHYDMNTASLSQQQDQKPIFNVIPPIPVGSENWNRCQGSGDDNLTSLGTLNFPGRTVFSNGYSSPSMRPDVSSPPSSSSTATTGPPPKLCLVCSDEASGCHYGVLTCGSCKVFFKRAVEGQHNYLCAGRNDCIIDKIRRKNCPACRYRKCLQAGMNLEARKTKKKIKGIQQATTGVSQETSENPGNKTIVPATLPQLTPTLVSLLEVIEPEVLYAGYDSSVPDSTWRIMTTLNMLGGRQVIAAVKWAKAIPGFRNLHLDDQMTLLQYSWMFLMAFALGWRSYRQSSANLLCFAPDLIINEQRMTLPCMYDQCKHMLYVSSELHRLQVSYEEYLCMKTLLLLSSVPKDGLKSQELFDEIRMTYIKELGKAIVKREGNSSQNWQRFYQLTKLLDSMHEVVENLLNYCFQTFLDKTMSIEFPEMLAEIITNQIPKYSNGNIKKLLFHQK
# Assay: GR reporter gene assay in HEK293
# Format: cell-based
# Details: reporter gene assay, HEK293; agonist dexamethasone 1 nM; read-out: GR antagonistic activity (IC50)
row,SMILES,IC50 [µM]
1,CCCCn1c(=O)c2ccccc2c2cc(C(O)(C(F)(F)F)C(F)(F)F)c(OC)c(OC)c21 [Compound 25],> 20
2,CCCCn1c(=O)c2ccccc2c2cc(C(O)(C(F)(F)F)C(F)(F)F)c3c(c21)OCO3 [Compound 26],0.76
3,CCCCn1c(=O)c2cc(OC)ccc2c2cc(C(O)(C(F)(F)F)C(F)(F)F)c(OC)cc21 [Compound 27],1.7
4,CCCCn1c(=O)c2cc(OC)ccc2c2cc(C(O)(C(F)(F)F)C(F)(F)F)cc(OC)c21 [Compound 28],5.2
5,CCCCn1c(=O)c2c(OC)c(OC)ccc2c2cc(C(O)(C(F)(F)F)C(F)(F)F)ccc21 [Compound 29],7.9
6,CCCCn1c(=O)c2c(OC)cc(OC)cc2c2cc(C(O)(C(F)(F)F)C(F)(F)F)ccc21 [Compound 30],> 20
7,CCCCn1c(=O)c2cc(OC)c(OC)cc2c2cc(C(O)(C(F)(F)F)C(F)(F)F)ccc21 [Compound 31],17
8,O=c1[nH]c2c(F)cc(C(O)(C(F)(F)F)C(F)(F)F)cc2c2ccccc12 [Compound 32],6.9
9,O=c1[nH]c2ccc(C(O)(C(F)(F)F)C(F)(F)F)cc2c2cccc(F)c12 [Compound 33],9.8
10,O=c1[nH]c2ccc(C(O)(C(F)(F)F)C(F)(F)F)cc2c2ccc(F)cc12 [Compound 34],> 20
11,O=c1[nH]c2ccc(C(O)(C(F)(F)F)C(F)(F)F)cc2c2cc(F)ccc12 [Compound 35],7
12,COc1cc(C(O)(C(F)(F)F)C(F)(F)F)cc2c1[nH]c(=O)c1ccccc12 [Compound 39],> 20
13,CCc1cc(C(O)(C(F)(F)F)C(F)(F)F)cc2c1[nH]c(=O)c1ccccc12 [Compound 41],> 20
14,"O=c1[nH]c2c(Cl)cc(C(O)(C(F)(F)F)C(F)(F)F)cc2c2ccccc12 [Compound 43, 4-Chloro-2-(1,1,1,3,3,3-hexafluoro-2-hydroxypropan-2-yl)phenanthridin-6(5H)-one]",> 20

# Target: T2, LXRα (Homo sapiens, UniProt Q13133)
# T2 construct: CMX-GAL4N-hLXRα-LBD; expressed in transfected cells; host or cells: HEK293
# T2 sequence (Q13133 209-447 limits assumed): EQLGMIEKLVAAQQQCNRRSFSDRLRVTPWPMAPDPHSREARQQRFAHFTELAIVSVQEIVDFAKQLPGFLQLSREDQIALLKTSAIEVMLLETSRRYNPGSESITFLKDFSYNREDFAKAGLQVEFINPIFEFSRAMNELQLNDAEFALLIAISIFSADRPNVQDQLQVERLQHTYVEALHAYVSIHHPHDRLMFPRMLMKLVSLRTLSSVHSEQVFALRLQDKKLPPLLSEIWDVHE
# Assay: LXRα reporter gene assay in HEK293
# Format: cell-based
# Details: read-out: LXRα antagonistic activity (IC50)
row,SMILES,IC50 [µM]
1,CCCCn1c(=O)c2ccccc2c2cc(C(O)(C(F)(F)F)C(F)(F)F)c(OC)c(OC)c21 [Compound 25],8.5
2,CCCCn1c(=O)c2ccccc2c2cc(C(O)(C(F)(F)F)C(F)(F)F)c3c(c21)OCO3 [Compound 26],> 20
3,CCCCn1c(=O)c2cc(OC)ccc2c2cc(C(O)(C(F)(F)F)C(F)(F)F)c(OC)cc21 [Compound 27],17
4,CCCCn1c(=O)c2cc(OC)ccc2c2cc(C(O)(C(F)(F)F)C(F)(F)F)cc(OC)c21 [Compound 28],> 10
5,CCCCn1c(=O)c2c(OC)c(OC)ccc2c2cc(C(O)(C(F)(F)F)C(F)(F)F)ccc21 [Compound 29],3.2
6,CCCCn1c(=O)c2c(OC)cc(OC)cc2c2cc(C(O)(C(F)(F)F)C(F)(F)F)ccc21 [Compound 30],> 20
7,CCCCn1c(=O)c2cc(OC)c(OC)cc2c2cc(C(O)(C(F)(F)F)C(F)(F)F)ccc21 [Compound 31],8.8
8,O=c1[nH]c2c(F)cc(C(O)(C(F)(F)F)C(F)(F)F)cc2c2ccccc12 [Compound 32],3.1
9,O=c1[nH]c2ccc(C(O)(C(F)(F)F)C(F)(F)F)cc2c2cccc(F)c12 [Compound 33],3.1
10,O=c1[nH]c2ccc(C(O)(C(F)(F)F)C(F)(F)F)cc2c2ccc(F)cc12 [Compound 34],7.9
11,O=c1[nH]c2ccc(C(O)(C(F)(F)F)C(F)(F)F)cc2c2cc(F)ccc12 [Compound 35],6.4
12,COc1cc(C(O)(C(F)(F)F)C(F)(F)F)cc2c1[nH]c(=O)c1ccccc12 [Compound 39],> 20
13,CCc1cc(C(O)(C(F)(F)F)C(F)(F)F)cc2c1[nH]c(=O)c1ccccc12 [Compound 41],> 20
14,"O=c1[nH]c2c(Cl)cc(C(O)(C(F)(F)F)C(F)(F)F)cc2c2ccccc12 [Compound 43, 4-Chloro-2-(1,1,1,3,3,3-hexafluoro-2-hydroxypropan-2-yl)phenanthridin-6(5H)-one]",5.3

# Target: T3, AR (Homo sapiens, UniProt P10275)
# T3 sequence (P10275 1-920): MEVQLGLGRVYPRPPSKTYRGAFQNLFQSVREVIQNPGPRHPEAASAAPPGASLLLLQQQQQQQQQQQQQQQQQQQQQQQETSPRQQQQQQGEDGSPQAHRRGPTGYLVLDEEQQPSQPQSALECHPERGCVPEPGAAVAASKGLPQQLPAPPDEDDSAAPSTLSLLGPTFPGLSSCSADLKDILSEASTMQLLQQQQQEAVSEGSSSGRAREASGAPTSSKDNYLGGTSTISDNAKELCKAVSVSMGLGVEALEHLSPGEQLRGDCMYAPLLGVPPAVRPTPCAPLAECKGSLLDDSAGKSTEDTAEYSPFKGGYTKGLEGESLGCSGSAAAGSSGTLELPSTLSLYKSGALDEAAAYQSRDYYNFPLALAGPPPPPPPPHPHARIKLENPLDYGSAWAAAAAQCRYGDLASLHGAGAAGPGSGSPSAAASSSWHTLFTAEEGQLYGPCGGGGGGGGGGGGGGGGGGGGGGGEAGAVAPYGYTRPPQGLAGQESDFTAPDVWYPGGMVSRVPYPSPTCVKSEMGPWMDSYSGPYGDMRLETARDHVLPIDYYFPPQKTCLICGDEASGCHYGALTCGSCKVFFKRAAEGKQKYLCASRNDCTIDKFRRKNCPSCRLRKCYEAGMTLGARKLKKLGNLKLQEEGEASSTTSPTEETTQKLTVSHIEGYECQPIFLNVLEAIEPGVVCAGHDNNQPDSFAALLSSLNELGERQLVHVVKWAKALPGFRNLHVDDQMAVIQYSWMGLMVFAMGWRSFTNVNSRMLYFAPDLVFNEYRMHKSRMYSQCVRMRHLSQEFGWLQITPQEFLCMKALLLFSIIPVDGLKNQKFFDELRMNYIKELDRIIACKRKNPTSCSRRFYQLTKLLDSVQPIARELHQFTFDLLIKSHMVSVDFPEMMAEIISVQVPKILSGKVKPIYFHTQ
# Assay: AR reporter gene assay in HEK293
# Format: cell-based
# Details: not given
SMILES,selectivity for AR over LXRα [fold],selectivity for AR over PR [fold],selectivity for AR over RORs and LXRβ
"O=c1[nH]c2c(Cl)cc(C(O)(C(F)(F)F)C(F)(F)F)cc2c2ccccc12 [Compound 43, 4-Chloro-2-(1,1,1,3,3,3-hexafluoro-2-hydroxypropan-2-yl)phenanthridin-6(5H)-one]",90,6,more than 340 fold

# Same assay, conditions: reporter gene assay, HEK293; agonist dihydrotestosterone 0.3 nM; read-out: AR antagonistic activity (IC50), AR reporter gene
row,SMILES,IC50 [µM]
1,CCCCn1c(=O)c2ccccc2c2cc(C(O)(C(F)(F)F)C(F)(F)F)c(OC)c(OC)c21 [Compound 25],6.1
2,CCCCn1c(=O)c2ccccc2c2cc(C(O)(C(F)(F)F)C(F)(F)F)c3c(c21)OCO3 [Compound 26],0.54
3,CCCCn1c(=O)c2cc(OC)ccc2c2cc(C(O)(C(F)(F)F)C(F)(F)F)c(OC)cc21 [Compound 27],0.58
4,CCCCn1c(=O)c2cc(OC)ccc2c2cc(C(O)(C(F)(F)F)C(F)(F)F)cc(OC)c21 [Compound 28],1.7
5,CCCCn1c(=O)c2c(OC)c(OC)ccc2c2cc(C(O)(C(F)(F)F)C(F)(F)F)ccc21 [Compound 29],4.6
6,CCCCn1c(=O)c2c(OC)cc(OC)cc2c2cc(C(O)(C(F)(F)F)C(F)(F)F)ccc21 [Compound 30],> 20
7,CCCCn1c(=O)c2cc(OC)c(OC)cc2c2cc(C(O)(C(F)(F)F)C(F)(F)F)ccc21 [Compound 31],1.6
8,O=c1[nH]c2c(F)cc(C(O)(C(F)(F)F)C(F)(F)F)cc2c2ccccc12 [Compound 32],0.39
9,O=c1[nH]c2ccc(C(O)(C(F)(F)F)C(F)(F)F)cc2c2cccc(F)c12 [Compound 33],0.46
10,O=c1[nH]c2ccc(C(O)(C(F)(F)F)C(F)(F)F)cc2c2ccc(F)cc12 [Compound 34],0.68
11,O=c1[nH]c2ccc(C(O)(C(F)(F)F)C(F)(F)F)cc2c2cc(F)ccc12 [Compound 35],0.92
12,COc1cc(C(O)(C(F)(F)F)C(F)(F)F)cc2c1[nH]c(=O)c1ccccc12 [Compound 39],> 20
13,CCc1cc(C(O)(C(F)(F)F)C(F)(F)F)cc2c1[nH]c(=O)c1ccccc12 [Compound 41],14
14,"O=c1[nH]c2c(Cl)cc(C(O)(C(F)(F)F)C(F)(F)F)cc2c2ccccc12 [Compound 43, 4-Chloro-2-(1,1,1,3,3,3-hexafluoro-2-hydroxypropan-2-yl)phenanthridin-6(5H)-one]",0.059

# Same assay, conditions: under the authors' assay conditions
row,SMILES,AR potency relative to OHF (more potent) [fold]
1,"O=c1[nH]c2c(Cl)cc(C(O)(C(F)(F)F)C(F)(F)F)cc2c2ccccc12 [Compound 43, 4-Chloro-2-(1,1,1,3,3,3-hexafluoro-2-hydroxypropan-2-yl)phenanthridin-6(5H)-one]",2.9

# Target: T4, RORα (Homo sapiens, UniProt P35398)
# T4 construct: expressed in transfected cells; host or cells: HEK293
# T4 sequence (P35398 1-523): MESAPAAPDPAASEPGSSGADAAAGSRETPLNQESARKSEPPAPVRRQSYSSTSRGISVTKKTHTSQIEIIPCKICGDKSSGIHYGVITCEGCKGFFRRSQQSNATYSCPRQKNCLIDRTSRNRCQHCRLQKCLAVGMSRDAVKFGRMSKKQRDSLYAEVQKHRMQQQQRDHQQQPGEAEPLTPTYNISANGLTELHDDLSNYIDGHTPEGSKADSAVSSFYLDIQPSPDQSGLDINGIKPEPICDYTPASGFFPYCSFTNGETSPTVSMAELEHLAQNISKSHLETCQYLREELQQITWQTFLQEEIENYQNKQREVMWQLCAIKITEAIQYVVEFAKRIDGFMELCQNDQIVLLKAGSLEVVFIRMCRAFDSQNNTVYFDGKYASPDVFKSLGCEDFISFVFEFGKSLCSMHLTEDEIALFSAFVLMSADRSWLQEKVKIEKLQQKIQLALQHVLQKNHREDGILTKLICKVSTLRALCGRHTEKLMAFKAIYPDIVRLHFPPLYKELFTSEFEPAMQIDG
# Assay: not given
# Details: reporter gene assay, HEK293; read-out: RORα inverse agonistic activity (IC50); cited from earlier work
row,SMILES,IC50 [µM]
1,CCCCn1c(=O)c2ccccc2c2cc(C(O)(C(F)(F)F)C(F)(F)F)c(OC)c(OC)c21 [Compound 25],> 10
2,CCCCn1c(=O)c2ccccc2c2cc(C(O)(C(F)(F)F)C(F)(F)F)c3c(c21)OCO3 [Compound 26],> 20
3,CCCCn1c(=O)c2cc(OC)ccc2c2cc(C(O)(C(F)(F)F)C(F)(F)F)c(OC)cc21 [Compound 27],9.5
4,CCCCn1c(=O)c2cc(OC)ccc2c2cc(C(O)(C(F)(F)F)C(F)(F)F)cc(OC)c21 [Compound 28],11
5,CCCCn1c(=O)c2c(OC)c(OC)ccc2c2cc(C(O)(C(F)(F)F)C(F)(F)F)ccc21 [Compound 29],7.3
6,CCCCn1c(=O)c2c(OC)cc(OC)cc2c2cc(C(O)(C(F)(F)F)C(F)(F)F)ccc21 [Compound 30],> 20
7,CCCCn1c(=O)c2cc(OC)c(OC)cc2c2cc(C(O)(C(F)(F)F)C(F)(F)F)ccc21 [Compound 31],18
8,O=c1[nH]c2c(F)cc(C(O)(C(F)(F)F)C(F)(F)F)cc2c2ccccc12 [Compound 32],15
9,O=c1[nH]c2ccc(C(O)(C(F)(F)F)C(F)(F)F)cc2c2cccc(F)c12 [Compound 33],7.9
10,O=c1[nH]c2ccc(C(O)(C(F)(F)F)C(F)(F)F)cc2c2ccc(F)cc12 [Compound 34],17
11,O=c1[nH]c2ccc(C(O)(C(F)(F)F)C(F)(F)F)cc2c2cc(F)ccc12 [Compound 35],9.8
12,COc1cc(C(O)(C(F)(F)F)C(F)(F)F)cc2c1[nH]c(=O)c1ccccc12 [Compound 39],> 20
13,CCc1cc(C(O)(C(F)(F)F)C(F)(F)F)cc2c1[nH]c(=O)c1ccccc12 [Compound 41],> 20
